The source of these data is patent US20240226211A9, “SEAWEED EXTRACTS, ISOLATED COMPOUNDS, AND METHODS OF TREATMENT” (University of Florida Research Foundation, Incorporated, priority 2017, published 2024).

Entries after “also recorded” stand apart in the source; their conditions may differ. A value given as a limit tells only on which side of the number the result lay.

For one experiment, the system named is iNOS. The experiment is described as follows: iNOS transcript levels in RAW264.7 macrophage cells. It is filed as cell-based, mouse. As to conditions: 10 μM Compound 1, IFN-γ. Here is the method:
(§1) The RNeasy Mini Kit (Qiagen) was used to collect total RNA from cells, while for mouse tissue, TRIzol reagent (Invitrogen) was used. In each case, total RNAs (2 μg) were reverse-transcribed into cDNAs, which were used as templates for TaqMan gene expression assay (Applied Biosystems) and detected using the 7300 Real-Time PCR System (Applied Biosystems). Each qPCR sample was tested in triplicate as a 25 μL total reaction volume (12.5 μL of Taqman 2× universal master mix, 1.25 μL of a 20× TaqMan gene expression assay probe, 1 μL of the above cDNA, and 10.25 μL of RNase-free sterile water). The qPCR method was designed as following: 50° C. for 2 min, 95° C. for 10 min, and 40 cycles of 95° C. for 15 s and 60° C. for 1 min. Endogenous controls used included GAPDH for IMR-32 cells and β-actin to normalize for RAW264.7 cells and mouse tissues.
(§2) RAW264.7 cells were seeded in 6-well plates (8×10^5 cells/well) and incubated at 37° C. overnight.

Another experiment relates to Nqo1. In words: Nqo1 transcript levels in RAW264.7 macrophage cells. The conditions noted are these: 10 μM Compound 1, IFN-γ. The class given is cell-based, mouse. Here is the method:
as §1, §2

Experiment [1] deals with PGE2 production in RAW264.7 cells. In words: PGE2 assay in RAW264.7 cells. It is filed as cell-based, mouse. The conditions noted are these: RAW264.7, IFN-γ. As to the method:
RAW264.7 cells were seeded into a 96 well format at 4×10^4 cells/well and incubated overnight at 37° C. Cells were treated with a solvent control (DMSO, 1%, v/v) or serial dilutions of isolated compounds or extracts for 1 h before the addition of IFN-γ (10 ng/mL). […] The experiment was performed using the standard manufacturer's protocol.

The test system of experiment [2] is NO production in MEF cells. The experiment is described as follows: NO assay in MEF cells. It is filed as cell-based, murine. As to conditions: stimulated with IFN-γ and TNF-α. As to the method:
RAW264.7 cells (2×10^4 cells/well), wild-type (8×10^3 cells/well), Nrf2−/−(7×10^3 cells/well), and Keap1−/−(5×10^3 cells/well) MEF were seeded into 96-well format. Cells were pretreated for 1 h with a solvent control (DMSO, 1%, v/v) or serial dilutions of isolated compounds or extracts before addition of LPS (1 μg/mL) or IFN-γ (10 ng/mL). […] In each case, 50 μL of the media was combined with 50 μL Griess Reagent (Promega). Absorbance was measured at 540 nm and compared with a calibration curve generated using the provided […] standard.

Experiment [3] has as its system neutrophil migration to cut site, Tg(mpx::GFP) zebrafish. The experiment is described as follows: Zebrafish in vivo neutrophil migration assay. On the set-up: species or system Danio rerio. As to conditions: relative to DMSO vehicle control. Here is the method: Tg(mpx::GFP)^ill4 transgenic zebrafish larvae (6 dpf) were pre-treated in duplicate with a solvent control ((DMSO, 1%, v/v) or serial dilutions of the compound or extract in 12-well plate format with five larvae per well containing 1 mL E2 medium containing 1 mM Tris pH 7.4. After 3 hours, larvae were anesthetised with Tricaine and tailfins were amputated using sharp blades to induce the migration of neutrophils. The larvae were then placed into fresh wells to be post-treated for an additional 3 hours. A fluorescence stereomicroscope was used to count the number of neutrophils that migrated to the site of injury. The assay was performed in triplicate to determine statistical significance.
For in vivo evaluation, a previously reported neutrophil migration assay in the model organism, Danio rerio, was used [Wang X, et al. (2014) Inhibitors of neutrophil recruitment identified using transgenic zebrafish to screen a natural product library. Dis Model Mech 7(1):163-169]. […] The fish were then quickly transferred into fresh media containing the treatments for an additional 3 h before the GFP-tagged neutrophils were counted under the fluorescent microscope. […]

Experiment [4] has as its system ARE-driven and NFκB driven genes. In words: Gene transcription in wildtype zebrafish embryos. It is filed as in vivo.

On to `CC(C)=CCC/C(C)=C/Cc1cc(O)c(Br)cc1O` [Compound 1, (E)-2-bromo-5-(3,7-dimethylocta-2,6-dien-1-yl)benzene-1,4-diol], for which the “lowering of induced iNOS transcript levels” value with iNOS is recorded as over 96%. The “increase of Nqo1 transcript levels” value with Nqo1 was over 96%. Besides, the “production of pro-inflammatory PGE2” value in experiment [1] was “effectively reduced the production”. Moreover, in experiment [2], the “NO production in wild-type MEFs” value is listed as “minimized NO production; also recorded: restore basal level of NO”; the “anti-inflammatory effects in Nrf2−/− and Keap1−/− MEFs” value is listed as “did not demonstrate appreciable anti-inflammatory effects”. Also, the “number of neutrophils at the cut site” value in experiment [3] is on record as “decrease of neutrophils”. In addition, in experiment [4], the ARE-driven gene transcription entry is listed as “increase in ARE-driven gene transcription” and the “select NFκB driven genes” value was “decrease in select NFκB driven genes”.
